The target of assay [1] is Dual specificity mitogen-activated protein kinase kinase 2 (Homo sapiens, UniProt P36507).
Assay [2] addresses Serine/threonine-protein kinase Nek6 (Homo sapiens) (UniProt Q9HC98).
In assay [3] the target is Casein kinase I isoform gamma-3 (Homo sapiens) (UniProt Q9Y6M4).
The target in assay [4] is Ribosomal protein S6 kinase alpha-3 (Homo sapiens) (UniProt P51812).
Assay [5] deals with T1, 3-phosphoinositide-dependent protein kinase 1 (Homo sapiens) (UniProt O15530).
T1 sequence (whole entry): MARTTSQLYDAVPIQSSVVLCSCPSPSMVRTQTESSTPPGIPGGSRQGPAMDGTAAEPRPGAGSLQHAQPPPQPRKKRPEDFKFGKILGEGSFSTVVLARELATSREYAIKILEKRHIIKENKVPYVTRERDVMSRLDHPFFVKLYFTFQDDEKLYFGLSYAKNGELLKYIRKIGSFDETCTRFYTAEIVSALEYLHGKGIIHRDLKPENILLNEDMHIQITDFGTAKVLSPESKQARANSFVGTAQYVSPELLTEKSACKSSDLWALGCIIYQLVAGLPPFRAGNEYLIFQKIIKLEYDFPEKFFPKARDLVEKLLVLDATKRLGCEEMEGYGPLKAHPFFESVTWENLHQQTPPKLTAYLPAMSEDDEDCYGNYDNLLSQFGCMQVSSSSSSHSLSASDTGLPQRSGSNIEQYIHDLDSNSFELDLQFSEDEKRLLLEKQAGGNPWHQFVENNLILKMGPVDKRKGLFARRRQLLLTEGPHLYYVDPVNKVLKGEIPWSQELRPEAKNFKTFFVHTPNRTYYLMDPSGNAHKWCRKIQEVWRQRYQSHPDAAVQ

Assay [6] addresses Casein kinase I isoform gamma-2 (Homo sapiens) (UniProt P78368).
Assay [7] deals with Serine/threonine-protein kinase Chk2 (Homo sapiens, UniProt O96017).
The target of assay [8] is T2, Mitogen-activated protein kinase kinase kinase 5 (Homo sapiens) (UniProt Q99683).
T2 sequence (whole entry): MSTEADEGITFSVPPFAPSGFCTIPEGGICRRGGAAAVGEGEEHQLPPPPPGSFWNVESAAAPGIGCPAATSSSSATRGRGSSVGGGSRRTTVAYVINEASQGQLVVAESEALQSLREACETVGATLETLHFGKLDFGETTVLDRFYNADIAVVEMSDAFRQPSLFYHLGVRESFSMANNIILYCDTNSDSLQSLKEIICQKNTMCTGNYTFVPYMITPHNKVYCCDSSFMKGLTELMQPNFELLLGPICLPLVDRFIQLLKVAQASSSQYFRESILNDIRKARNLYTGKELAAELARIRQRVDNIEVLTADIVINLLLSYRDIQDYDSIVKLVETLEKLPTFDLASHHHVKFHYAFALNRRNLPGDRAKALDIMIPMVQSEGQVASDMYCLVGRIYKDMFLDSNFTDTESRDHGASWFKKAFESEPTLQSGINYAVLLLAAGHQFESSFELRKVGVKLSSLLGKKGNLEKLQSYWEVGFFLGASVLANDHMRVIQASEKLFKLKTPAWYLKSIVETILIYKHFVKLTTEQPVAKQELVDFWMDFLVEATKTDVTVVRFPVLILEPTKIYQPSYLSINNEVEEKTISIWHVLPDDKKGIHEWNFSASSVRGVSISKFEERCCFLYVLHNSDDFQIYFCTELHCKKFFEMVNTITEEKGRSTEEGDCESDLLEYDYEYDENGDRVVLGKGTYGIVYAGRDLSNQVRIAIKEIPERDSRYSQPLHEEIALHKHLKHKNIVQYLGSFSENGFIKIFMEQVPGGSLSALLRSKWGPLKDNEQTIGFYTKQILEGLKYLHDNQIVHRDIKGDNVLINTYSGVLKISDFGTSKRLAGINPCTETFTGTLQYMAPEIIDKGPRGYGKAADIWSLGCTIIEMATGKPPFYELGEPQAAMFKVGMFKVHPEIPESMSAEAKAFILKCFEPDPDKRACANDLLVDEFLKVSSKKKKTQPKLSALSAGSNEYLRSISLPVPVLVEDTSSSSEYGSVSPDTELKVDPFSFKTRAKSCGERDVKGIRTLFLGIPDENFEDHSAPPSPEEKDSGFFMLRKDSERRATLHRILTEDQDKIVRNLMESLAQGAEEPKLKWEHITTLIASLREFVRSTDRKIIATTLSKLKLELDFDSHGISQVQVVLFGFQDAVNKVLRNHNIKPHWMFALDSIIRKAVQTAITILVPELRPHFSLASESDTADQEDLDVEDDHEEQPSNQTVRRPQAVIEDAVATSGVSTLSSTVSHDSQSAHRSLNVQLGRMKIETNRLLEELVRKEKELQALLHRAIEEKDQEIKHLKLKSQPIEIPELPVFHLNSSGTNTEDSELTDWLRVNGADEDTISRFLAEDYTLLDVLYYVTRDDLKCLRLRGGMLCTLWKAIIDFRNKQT

Assay [9] addresses T3, Serine/threonine-protein kinase 4 (Homo sapiens) (UniProt Q13043).
T3 sequence (whole entry): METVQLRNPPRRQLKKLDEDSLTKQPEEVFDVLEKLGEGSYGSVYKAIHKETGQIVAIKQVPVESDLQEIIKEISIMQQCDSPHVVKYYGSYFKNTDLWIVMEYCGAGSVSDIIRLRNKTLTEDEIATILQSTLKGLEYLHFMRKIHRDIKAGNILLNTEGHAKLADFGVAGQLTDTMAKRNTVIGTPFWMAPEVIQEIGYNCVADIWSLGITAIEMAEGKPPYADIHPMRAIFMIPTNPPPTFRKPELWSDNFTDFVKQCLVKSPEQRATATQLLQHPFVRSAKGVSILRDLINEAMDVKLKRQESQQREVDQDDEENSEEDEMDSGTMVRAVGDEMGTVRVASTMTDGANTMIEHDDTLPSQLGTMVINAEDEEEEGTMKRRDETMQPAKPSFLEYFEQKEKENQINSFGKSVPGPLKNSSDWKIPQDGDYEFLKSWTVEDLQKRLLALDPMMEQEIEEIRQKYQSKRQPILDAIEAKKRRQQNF

Molecules are shown by their SMILES.

Sequence of Serine/threonine-protein kinase Chk2 (O96017 whole entry): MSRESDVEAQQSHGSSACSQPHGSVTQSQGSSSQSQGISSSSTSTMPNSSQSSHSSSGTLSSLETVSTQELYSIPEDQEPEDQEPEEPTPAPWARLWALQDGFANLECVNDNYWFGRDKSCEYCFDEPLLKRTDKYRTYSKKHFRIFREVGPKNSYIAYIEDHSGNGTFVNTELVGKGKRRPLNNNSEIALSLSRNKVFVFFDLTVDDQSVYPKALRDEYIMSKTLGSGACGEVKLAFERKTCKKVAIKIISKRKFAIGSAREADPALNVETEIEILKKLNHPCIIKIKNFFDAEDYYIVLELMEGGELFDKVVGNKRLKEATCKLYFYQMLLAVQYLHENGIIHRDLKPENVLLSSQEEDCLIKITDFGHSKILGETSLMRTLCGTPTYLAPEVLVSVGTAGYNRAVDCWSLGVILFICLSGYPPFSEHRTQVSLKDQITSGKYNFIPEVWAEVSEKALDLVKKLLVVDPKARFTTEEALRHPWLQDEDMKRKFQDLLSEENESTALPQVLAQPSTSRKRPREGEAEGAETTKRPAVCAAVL
Sequence of Dual specificity mitogen-activated protein kinase kinase 2 (P36507 whole entry): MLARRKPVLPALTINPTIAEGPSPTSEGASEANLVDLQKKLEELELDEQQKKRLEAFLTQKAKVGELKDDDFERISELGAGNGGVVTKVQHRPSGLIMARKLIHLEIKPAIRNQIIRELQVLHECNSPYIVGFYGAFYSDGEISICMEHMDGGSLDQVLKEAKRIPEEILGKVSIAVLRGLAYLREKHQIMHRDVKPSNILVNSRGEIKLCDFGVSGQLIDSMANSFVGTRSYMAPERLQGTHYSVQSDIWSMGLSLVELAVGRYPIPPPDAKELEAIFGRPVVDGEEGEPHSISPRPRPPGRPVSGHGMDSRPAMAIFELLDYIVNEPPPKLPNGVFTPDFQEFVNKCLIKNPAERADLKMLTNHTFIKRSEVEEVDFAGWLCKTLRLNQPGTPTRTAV
Sequence of Ribosomal protein S6 kinase alpha-3 (Homo sapiens) (P51812 whole entry): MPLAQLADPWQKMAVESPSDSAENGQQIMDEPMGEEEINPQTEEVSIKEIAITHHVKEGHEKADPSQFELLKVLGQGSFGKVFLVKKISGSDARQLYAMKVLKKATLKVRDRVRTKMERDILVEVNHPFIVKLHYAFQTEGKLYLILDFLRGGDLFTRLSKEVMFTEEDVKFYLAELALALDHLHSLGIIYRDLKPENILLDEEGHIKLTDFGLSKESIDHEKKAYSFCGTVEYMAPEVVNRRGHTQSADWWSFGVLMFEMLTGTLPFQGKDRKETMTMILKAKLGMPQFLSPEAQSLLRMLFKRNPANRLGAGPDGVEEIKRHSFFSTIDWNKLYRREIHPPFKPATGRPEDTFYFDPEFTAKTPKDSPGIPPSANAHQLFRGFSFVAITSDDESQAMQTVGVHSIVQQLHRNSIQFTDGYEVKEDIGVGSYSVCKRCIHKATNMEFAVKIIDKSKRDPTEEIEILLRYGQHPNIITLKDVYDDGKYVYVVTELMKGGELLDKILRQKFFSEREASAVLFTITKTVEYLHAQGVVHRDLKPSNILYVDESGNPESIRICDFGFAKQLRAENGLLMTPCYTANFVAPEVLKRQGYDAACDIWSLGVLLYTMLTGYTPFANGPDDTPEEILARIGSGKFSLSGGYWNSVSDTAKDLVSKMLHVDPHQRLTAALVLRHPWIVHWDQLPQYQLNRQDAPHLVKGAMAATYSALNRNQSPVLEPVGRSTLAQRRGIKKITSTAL
Sequence of Casein kinase I isoform gamma-2 (Homo sapiens) (P78368 whole entry, looked up, canonical isoform): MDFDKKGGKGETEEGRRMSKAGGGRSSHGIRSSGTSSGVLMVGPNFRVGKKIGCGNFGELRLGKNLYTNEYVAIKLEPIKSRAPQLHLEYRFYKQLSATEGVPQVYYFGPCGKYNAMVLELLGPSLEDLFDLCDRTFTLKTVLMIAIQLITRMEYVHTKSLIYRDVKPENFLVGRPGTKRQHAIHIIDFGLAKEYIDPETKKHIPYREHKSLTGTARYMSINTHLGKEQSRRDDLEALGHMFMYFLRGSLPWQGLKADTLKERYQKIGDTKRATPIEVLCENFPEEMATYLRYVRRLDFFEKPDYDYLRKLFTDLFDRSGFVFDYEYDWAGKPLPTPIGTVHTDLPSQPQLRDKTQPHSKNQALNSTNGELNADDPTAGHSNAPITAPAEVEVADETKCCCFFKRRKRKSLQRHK
Sequence of Serine/threonine-protein kinase Nek6 (Homo sapiens) (Q9HC98 whole entry, canonical isoform): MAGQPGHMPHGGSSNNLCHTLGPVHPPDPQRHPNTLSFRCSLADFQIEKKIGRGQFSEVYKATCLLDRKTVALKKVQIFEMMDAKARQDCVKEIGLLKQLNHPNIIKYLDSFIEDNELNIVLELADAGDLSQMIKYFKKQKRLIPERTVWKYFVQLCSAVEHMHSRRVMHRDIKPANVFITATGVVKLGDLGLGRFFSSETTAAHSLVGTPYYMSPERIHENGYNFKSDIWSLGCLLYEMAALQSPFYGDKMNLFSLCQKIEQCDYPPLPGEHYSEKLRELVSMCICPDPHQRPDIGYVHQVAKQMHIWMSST
Sequence of Casein kinase I isoform gamma-3 (Homo sapiens) (Q9Y6M4 whole entry, looked up, canonical isoform): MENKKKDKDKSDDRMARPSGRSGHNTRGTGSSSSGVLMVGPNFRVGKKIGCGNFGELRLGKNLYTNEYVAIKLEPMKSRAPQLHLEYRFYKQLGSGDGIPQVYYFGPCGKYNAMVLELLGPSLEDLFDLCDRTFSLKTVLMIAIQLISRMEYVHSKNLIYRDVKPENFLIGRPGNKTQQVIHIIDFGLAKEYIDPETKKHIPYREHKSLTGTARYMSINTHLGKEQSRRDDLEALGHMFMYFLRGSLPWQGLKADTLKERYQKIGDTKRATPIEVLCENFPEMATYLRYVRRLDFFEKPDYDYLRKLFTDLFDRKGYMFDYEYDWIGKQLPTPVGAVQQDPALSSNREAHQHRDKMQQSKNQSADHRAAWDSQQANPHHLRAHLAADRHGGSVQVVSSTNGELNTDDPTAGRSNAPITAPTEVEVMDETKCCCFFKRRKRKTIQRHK

One may read the ΔTm as the shift of the melting midpoint relative to a reference. For the molecule `Cn1cc(C2=C(c3cn(CCCSC(=N)N)c4ccccc34)C(=O)NC2=O)c2ccccc21`, the ΔTm was 0.9 °C in assay [1]; -1 °C in assay [2]; 1 °C in assay [3]; 2.1 °C in assay [4]; 0.1 °C in [5]; 0.7 °C in [6]. Moreover, the ΔTm was determined as 7 °C in [7], 0.3 °C in assay [8] and 7.4 °C in [9].

Take `O=C1Cc2c([nH]c3ccc([N+](=O)[O-])cc23)-c2ccccc2N1`: the thermal shift (ΔTm) in assay [1] was found to be 0.3 °C; in [2] it was 0.8 °C; in [3] it was 0.9 °C; in assay [4], 0.2 °C; in assay [5], 0 °C; in [6], 0.8 °C. In addition, the ΔTm in assay [7] turned out to be 7.8 °C; in assay [8] it was 0.9 °C; in assay [9] it was 5.1 °C.

Take `CN(C)CC1CCn2c(c(C3=C(c4c[nH]c5ccccc45)C(=O)NC3=O)c3ccccc32)C1` (stereo unspecified): the ΔTm in [1] was -0.1 °C; in [2], -0.9 °C; in assay [3], 0.8 °C; in assay [4], 0.8 °C; in assay [5], -0.1 °C; in [6], 0.3 °C. Further, the ΔTm in [7] turned out to be 0.6 °C; in assay [8], 0 °C; in assay [9] it was 4.9 °C.

Regarding `Nc1cc2ncnc(Nc3cccc(Br)c3)c2cc1N`, the shift in melting temperature (ΔTm) was 1.2 °C in assay [1]; -0.2 °C in [2]; 0.4 °C in assay [3]; 0.5 °C in assay [4]; -0.2 °C in assay [5]; 0.4 °C in assay [6]. The shift in melting temperature (ΔTm) is 1.8 °C in assay [7], 0.4 °C in assay [8] and 2.7 °C in [9].

As for `O=C1Nc2ccccc2/C1=C1/Nc2ccccc2/C1=N\O`, the ΔTm was 5.9 °C in assay [1]; 1.2 °C in assay [2]; 2.7 °C in assay [3]; 4.1 °C in assay [4]; 0.8 °C in assay [5]; 2.6 °C in [6]. Also, the ΔTm in [7] is 4.9 °C; in assay [8], 5.6 °C; in [9], 8.4 °C.

As for `O=Nc1c(-c2c(O)[nH]c3ccccc23)[nH]c2ccccc12`, the thermal shift (ΔTm) in assay [1] worked out at 4.4 °C; in [2] it was 0.1 °C; in assay [3], 2.7 °C; in assay [4], 0 °C; in [5] it was 1.5 °C; in assay [6], 1.3 °C. In addition, the ΔTm in [7] amounted to 3.1 °C; in [8], 5.7 °C; in [9] it was 7.8 °C.

Take `CC(C)n1cnc2c(NCc3ccccc3O)nc(NCCCO)nc21`: the ΔTm is -0.2 °C in [1]; 0 °C in assay [2]; 0.5 °C in [3]; 0.7 °C in assay [4]; 0.1 °C in assay [5]; 0.7 °C in assay [6]. The shift in melting temperature (ΔTm) in [7] is -0.4 °C; in assay [8], 1 °C; in assay [9], 0.3 °C.

Take `CCOc1cc(/C=C(\C#N)C(N)=O)cc(CSc2ccccc2)c1O`: the shift in melting temperature (ΔTm) in [1] was 0.4 °C; in assay [2] it was -0.1 °C; in assay [3] it was 0.4 °C; in assay [4] it was 0.1 °C; in assay [5], 0 °C; in assay [6], 0.7 °C. The ΔTm in [7] stood at 0 °C; in assay [8], 0.1 °C; in assay [9] it was 0.4 °C.

Turning to `CC(C)n1cnc2c(NCc3ccccc3)nc(NCCCO)nc21`, the ΔTm in assay [1] was -0.3 °C; in [2] it was 0.4 °C; in assay [3] it was 1.1 °C; in [4], 2.5 °C; in assay [5], 0.1 °C; in [6] it was 1.1 °C. Moreover, the ΔTm is 0.5 °C in assay [7], 0.2 °C in assay [8] and -0.3 °C in assay [9].

In the case of `O=S(=O)(NCCNC/C=C/c1ccc(Br)cc1)c1cccc2cnccc12`, the ΔTm in assay [1] was 0 °C; in assay [2], -0.1 °C; in assay [3], 0.1 °C; in [4], 0.6 °C; in [5] it was -0.7 °C; in assay [6], 0.1 °C. Besides, the ΔTm in [7] is 2.6 °C; in [8], -0.3 °C; in assay [9], -0.2 °C.

On to `Nc1n[nH]c2nnc(-c3c(-c4ccccc4)nn4ccccc34)cc12`, for which the thermal shift (ΔTm) in [1] is 0.7 °C; in [2], 0.3 °C; in assay [3], 1.1 °C; in [4] it was 1.7 °C; in assay [5] it was 1 °C; in [6], 0 °C. Moreover, the thermal shift (ΔTm) in [7] was found to be 0.9 °C; in assay [8], 0.6 °C; in assay [9], 0.4 °C.

Consider `Cn1cc(/C=C2/C(=O)Nc3ccc(S(N)(=O)=O)cc32)c2ccccc21`, for which the shift in melting temperature (ΔTm) in assay [1] is 1.1 °C; in assay [2], 1.7 °C; in assay [3], 0.2 °C; in [4], 4.8 °C; in [5], 0.2 °C; in assay [6], 0.5 °C. The thermal shift (ΔTm) in assay [7] was 10.6 °C; in [8], 1 °C; in assay [9], -0.4 °C.

For the molecule `O=C1c2ccccc2-c2n[nH]c3cccc1c23`, the ΔTm in [1] was 1.3 °C; in [2], 0.9 °C; in assay [3], 2 °C; in [4], 7 °C; in assay [5] it was -0.1 °C; in assay [6], 2.5 °C. For the same molecule, the ΔTm was found to be 6 °C in assay [7], 8.8 °C in assay [8] and 4.3 °C in assay [9].

Consider `C#Cc1cccc(Nc2ncnc3cc(OCCOC)c(OCCOC)cc23)c1`, for which the thermal shift (ΔTm) is 0.6 °C in assay [1]; -0.7 °C in assay [2]; 0.2 °C in assay [3]; 6.3 °C in assay [4]; 0 °C in assay [5]; -0.1 °C in assay [6]. Further, the results for the ΔTm in [7], in [8] and in [9] were 0.4 °C, 0.3 °C and 0.5 °C, respectively.

These data come from ChEMBL document CHEMBL1145498, “A systematic interaction map of validated kinase inhibitors with Ser/Thr kinases” (Proc Natl Acad Sci U S A, 2007).
